# Measured values from patent US4359473A, “α-Amino deoxy clavulanic acid antibacterial agents” (priority 1977, dated 1982).
# Legend:
# E. Coli E96 = experiment: Subcutaneous synergistic activity with amoxycillin, intraperitoneal mouse infection, E. Coli E96; format: in vivo
# Excerpt: (§1) 9-N-Isobutylaminodeoxyclavulanic acid and 9-N-n-butylaminodeoxyclavulanic acid have been compared as synergists in vivo by the subcutaneous route against 2 strains of RTEM E. Coli in intraperitoneal mouse infections.
# (§2) Comparative subcutaneous synergistic activity of 9-N-Isobutylaminodeoxyclavulanic acid and 9-N-n-butylaminodeoxyclavulanic acid with amoxycillin against mouse E. Coli infections
# Aqueous solubility = format: physicochemical
# E. coli JT 39 [1] = experiment: Effectiveness as synergist with amoxycillin, peritoneal infection due to E. coli JT 39 (Demonstration 2); format: in vivo; conditions: for ED50: Escherichia coli, JT39, sc, Test 1, alone, sub-cutaneous 1 and 5 hours post infection, read-out: CD50 (approximate), compound alone
# E. Coli E124 = experiment: Subcutaneous synergistic activity with amoxycillin, intraperitoneal mouse infection, E. Coli E124; format: in vivo
# Excerpt: as §1, §2
# [2] = tested on: staphylococcus aureus Russell; experiment: Effectiveness as anti-bacterial, mice infected with Staphylococcus aureus Russell (thigh lesion); format: in vivo; conditions: for Protection (%): subcutaneous at 1, 3 and 5 hours post infection
# Description: Mice were infected with staphylococcus aureus Russell (thigh lesion with 0.2 ml im) and thereafter were dosed subcutaneously at 1, 3 and 5 hours post infection with a solution of the test compound.
# E. coli JT 39 [3] = experiment: In-vivo synergistic effect with amoxycillin in mice infected by E. coli JT 39
# Description: This microorganism produces considerable quantities of a β-lactamase which degrades amoxycillin so reducing its antibaceterial effectiveness in-vivo.
# (Sodium amoxycillin was prepared by dissolving amoxycillin trihydrate in
# sodium carbonate/sodium bicarbonate buffer).
# [4] = tested on: β-lactamase producing strains of gram-negative and gram-positive bacteria; experiment: Synergistic/antibacterial activity in-vivo, general statement; conditions: with penicillins and cephalosporins
# in vivo = conditions: mouse, ip
# LD50 in mice = conditions: mouse, in vivo, sc
compound,measurement,setting,value
CC(C)CNC/C=C1\O[C@@H]2CC(=O)N2[C@H]1C(=O)O [9-N-Isobutylaminodeoxyclavulanic acid],"relative synergist activity in vivo, 2 strains of RTEM E. Coli","E. Coli E96; subcutaneous route, intraperitoneal mouse infections, both strains (E96, E124)",more active then the n-butylamine
same,aqueous solubility,Aqueous solubility,increased aqueous solubility
CC1(C)S[C@@H]2[C@H](NC(=O)[C@H](N)c3ccc(O)cc3)C(=O)N2[C@H]1C(=O)O [Amoxycillin],ED50,E. coli JT 39 [1],1000 mg/kg
same,"CD50 (approximate), compound alone","E. coli JT 39 [1]; Test 2, sub-cutaneous 1 and 5 hours post infection",1000 mg/kg × 2
same,"CD50 (approximate), compound alone","E. coli JT 39 [1]; Test 3, sub-cutaneous 1 and 5 hours post infection",1000 mg/kg × 2
same,"CD50, amoxycillin alone","E. Coli E96; E. Coli E96, P409, alone",> 1000 mg/kg × 2
same,ED50,"E. Coli E96; Escherichia coli, sc, E. Coli E96, P392, alone, read-out: CD50, amoxycillin alone",> 1000 mg/kg
same,"CD50, amoxycillin alone","E. Coli E124; E. Coli E124, P412",> 1000 mg/kg × 2
same,ED50,"E. Coli E124; Escherichia coli, sc, E. Coli E124, P397, alone, read-out: CD50, amoxycillin alone",> 1000 mg/kg
"Cc1nnc(SCC2=C(C(=O)O)N3C(=O)[C@@H](NC(=O)Cn4cnnn4)[C@H]3SC2)s1 [Cefazolin, reference compound]",ED50,E. coli JT 39 [1],10.5 mg/kg
same,Protection (%),[2]; 20 mg/kg,39.0%
same,Protection (%),[2]; 50 mg/kg,71.2%
"Cc1onc(-c2ccccc2Cl)c1C(=O)N[C@@H]1C(=O)N2[C@@H]1SC(C)(C)[C@@H]2C(=O)O [Cloxacillin, reference compound]",Protection (%),[2]; 20 mg/kg,61.6%
same,Protection (%),[2]; 50 mg/kg,91.7%
"O=C(O)[C@H]1/C(=C/CNCc2ccccc2)O[C@@H]2CC(=O)N21 [Example 2, 9-N-Benzylaminodeoxyclavulanic acid]",protecting amoxycillin from the β-lactamase of E. coli JT 39 in-vivo,E. coli JT 39 [3]; administered orally,less effective per given weight than when administered sub-cutaneously
same,toxic effects during these tests,"E. coli JT 39 [3]; in-vivo synergy tests, mice",not observed to produce toxic effects
same,Protection (%),[2]; 5 mg/kg,69.8%
same,Protection (%),[2]; 10 mg/kg,89.7%
same,Protection (%),[2]; 20 mg/kg,99.3%
same,effectiveness in treating certain infections due to Staphylococcus aureus Russell,"[2]; compared with ampicillin, cloxacillin or cefazolin","more effective than ampicillin, cloxacillin or cefazolin"
same,synergistic activity in-vivo,[4],particularly good synergistic activity in-vivo
same,LD50,in vivo,> 1000 mg/kg
same,LD50,LD50 in mice,> 500 mg/kg
"COc1ccc(CNC/C=C2\O[C@@H]3CC(=O)N3[C@H]2C(=O)O)cc1 [Example 7, 9-N-(4-Methoxybenzyl)aminodeoxyclavulanic acid]",Protection (%),[2]; 5 mg/kg,28.0%
same,Protection (%),[2]; 10 mg/kg,80.8%
same,Protection (%),[2]; 20 mg/kg,87.6%
"CC1(C)S[C@@H]2[C@H](NC(=O)[C@H](N)c3ccc(O)cc3)C(=O)N2[C@H]1C(=O)O [Sodium amoxycillin, reference compound]",ED50,"E. coli JT 39 [3]; Escherichia coli, JT39, sc, sub-cutaneous, mice, alone, read-out: CD50, sodium amoxycillin alone",200 mg/kg
